The values that follow come from patent US7049289B1, “Labelled glutamine and lysine analogues” (Amersham PLC, priority 1998, dated 2006).

A short description of test [1]: Incorporation into clots induced in a rat model (rat inferior vena cava model). The test is classed as in vivo, rat (Male Wistar). To be noted: for % id/g (clot) / Rel. Conc. (cpm/g of clot by dose/g animal): sacrificed after 60 min. The protocol:
The rats (Male Wistar, 250–350 g) were anaesthetised with 15% urethane. After laparotomy, the vena cava was isolated and freed of surrounding fat tissue. […] The compounds were injected 5 min (fresh clot) and 60 min (aged clot) post-induction. After 60 min the animals were sacrificed and the clot removed, weighed and counted. Other tissues e.g. blood, lung, heart, were also dissected and counted. The uptake of tracer into the clot was determined as the relative concentration (cpm/g of clot by dose/g animal) and clot to background tissue.

Test [2] addresses T1, fibrin (in vitro human plasma clot) (Homo sapiens, UniProt P02671+P02675+P02679).
T1 construct: about 400 μl of human plasma containing the radiolabelled substrate; from tissue; host or cells: human plasma, clotted in vitro with added thrombin and calcium chloride
T1 sequence (P02671 20-644 isoform P02671-2 limits assumed): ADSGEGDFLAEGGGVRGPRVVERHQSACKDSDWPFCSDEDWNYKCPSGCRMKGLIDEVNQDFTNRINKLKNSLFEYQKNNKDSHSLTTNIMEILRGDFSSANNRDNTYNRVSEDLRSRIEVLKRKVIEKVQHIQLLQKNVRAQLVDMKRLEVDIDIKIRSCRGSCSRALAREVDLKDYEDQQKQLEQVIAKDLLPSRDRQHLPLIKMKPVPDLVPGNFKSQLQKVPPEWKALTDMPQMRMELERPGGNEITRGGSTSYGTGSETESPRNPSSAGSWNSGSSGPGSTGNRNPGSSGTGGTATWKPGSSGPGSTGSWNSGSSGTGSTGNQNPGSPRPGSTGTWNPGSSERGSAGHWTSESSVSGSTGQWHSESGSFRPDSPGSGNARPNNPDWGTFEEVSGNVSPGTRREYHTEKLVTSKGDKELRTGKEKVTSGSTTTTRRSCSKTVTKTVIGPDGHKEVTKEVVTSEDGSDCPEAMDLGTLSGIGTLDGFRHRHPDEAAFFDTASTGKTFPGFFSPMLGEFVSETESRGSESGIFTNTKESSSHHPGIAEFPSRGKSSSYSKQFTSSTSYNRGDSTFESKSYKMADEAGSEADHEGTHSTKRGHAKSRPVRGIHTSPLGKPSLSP
T1 sequence (P02675 45-491 limits assumed): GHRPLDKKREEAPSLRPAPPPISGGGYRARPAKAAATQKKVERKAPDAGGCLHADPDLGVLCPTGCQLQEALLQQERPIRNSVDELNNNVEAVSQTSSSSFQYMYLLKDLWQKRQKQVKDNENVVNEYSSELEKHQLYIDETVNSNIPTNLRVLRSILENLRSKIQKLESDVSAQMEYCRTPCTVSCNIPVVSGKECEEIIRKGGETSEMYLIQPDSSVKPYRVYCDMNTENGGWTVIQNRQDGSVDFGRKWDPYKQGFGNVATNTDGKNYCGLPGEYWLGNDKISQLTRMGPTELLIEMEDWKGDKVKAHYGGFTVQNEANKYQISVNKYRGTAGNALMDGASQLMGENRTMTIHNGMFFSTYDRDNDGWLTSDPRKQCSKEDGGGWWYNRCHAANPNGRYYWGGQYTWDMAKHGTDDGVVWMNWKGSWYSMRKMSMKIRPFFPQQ
T1 sequence (P02679 27-437 isoform P02679-2 limits assumed): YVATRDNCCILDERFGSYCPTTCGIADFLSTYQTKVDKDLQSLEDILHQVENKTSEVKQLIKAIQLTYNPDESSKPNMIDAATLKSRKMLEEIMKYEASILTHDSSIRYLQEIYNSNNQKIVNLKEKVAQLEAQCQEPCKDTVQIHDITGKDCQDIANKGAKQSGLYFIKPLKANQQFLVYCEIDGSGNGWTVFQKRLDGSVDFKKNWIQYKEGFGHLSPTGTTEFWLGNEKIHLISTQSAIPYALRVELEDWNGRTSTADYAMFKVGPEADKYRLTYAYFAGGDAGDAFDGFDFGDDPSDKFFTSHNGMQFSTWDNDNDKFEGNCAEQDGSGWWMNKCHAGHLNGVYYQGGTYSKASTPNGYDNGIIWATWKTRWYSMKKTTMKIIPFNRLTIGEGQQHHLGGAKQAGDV
The experiment in a line: Incorporation into human plasma clots in vitro. The test is classed as biochemical. To be noted: for % specific uptake: % retained (with thrombin) - % retained (no thrombin); for % retained (no thrombin): control without thrombin and calcium chloride (non-specific binding); for % retained (with thrombin): human plasma clot, 60 minutes, ca. 20° C. The protocol:
Incorporation of radiolabelled substrates into fibrin was investigated by induction of an in vitro human plasma clot in the following manner. To a siliconised 5 ml glass vial was added, (a) 800 μl of Tris(hydroxymethyl)aminomethane buffered saline pH 7.5 containing calcium chloride (50 mM Tris, 150 mM sodium chloride, 4 mM calcium chloride.), (b) about 40 μl of physiological salt solution containing 100 units of thrombin per ml, (c) about 400 μl of human plasma containing the radiolabelled substrate at a concentration of typically 10 kBq/ml. To aid induction of clot a roughened glass rod was added to the reaction vial. Control vials were prepared similarly but with the omission of thrombin and calcium chloride.
After incubation of the test solution at ambient laboratory temperature (ca. 20° C.) for 60 minutes the reaction was discontinued with the addition of about 400 μl of a cold solution of 33.5 mM ethylenediaminetetra-acetic acid disodium salt. Clots were separated from serum by vacuum filtration onto […] nitrocellulose filters (pre-soaked in 1.5% BSA/tris(hydroxymethyl)aminoethae buffered saline pH 7.5 containing 0.1% Tween 20) and washed with about 2×10 ml of tris(hydroxymethyl)aminomethane buffered saline pH 7.5 containing Tween 20 to a final concentration of 0.1% v/v. The proportion of total radioactivity was calculated by counting in suitable detection apparatus.
The fraction of radioactivity retained on the filter, after subtraction of the non-specific binding determined from the control, is a measure of incorporation into the filtered clots.

The mark [3] stands for this setting: Aged Clots: injected 60 min post-induction.
[4] abbreviates: Fresh Clots: injected 5 min post-induction.

Where no end group is shown, it is not given here. code Z = not defined here

In test [1] (Aged Clots), “(CF3)2(C6H3)-NQEQVSPYTLLKG-Pn216 ({(CF3)2(C6H3)}-NQEQVSPYTLLKG-Pn216; also: 99mTc complex) [^99mTc-Cmpd 10]” had a Clot/blood of 6, a Clot/heart of 16, a Clot/liver of 5 and a Clot/lung of 6. Besides, in test [1] (setting [3]), the “% id/g (clot)” value stood at 2.9 ± 1.4 % id/g and the “Rel. Conc. (cpm/g of clot by dose/g animal)” value is listed as 6.3 ± 2.7. In test [1] (Fresh Clots), this substance came in with a Clot/blood of 4, a Clot/heart of 10, a Clot/liver of 5 and a Clot/lung of 5. For the same substance, in test [1] (setting [4]), the “% id/g (clot)” value came out at 2.9 ± 0.5 % id/g and the “Rel. Conc. (cpm/g of clot by dose/g animal)” value was 6.5 ± 1.2. In addition, in test [2], the “% specific uptake” value is recorded as 65.7%, the “% retained (no thrombin)” value is recorded as 0.2% and the “% retained (with thrombin)” value is listed as 65.9%.

Turning to “Ac-(D-N)QEQVSP(D-Y)TLL(D-K)G-Pn216 [^99mTc-Cmpd 32]”, in test [1] (Aged Clots), the Clot/blood was found to be 3, the Clot/heart is recorded as 43, the Clot/liver turned out to be 21 and the Clot/lung turned out to be 15. Further, in test [1] (setting [3]), the “% id/g (clot)” value was determined as 0.7 ± 0.1 % id/g and the “Rel. Conc. (cpm/g of clot by dose/g animal)” value was 2.0 ± 0.4. In test [1] (Fresh Clots), this substance showed a Clot/blood of 10, a Clot/heart of 26, a Clot/liver of 27 and a Clot/lung of 11. In addition, in test [1] (setting [4]), the “% id/g (clot)” value amounted to 1.7 ± 0.7 % id/g and the “Rel. Conc. (cpm/g of clot by dose/g animal)” value came out at 4.6 ± 1.9. Also, in test [2], the “% specific uptake” value is 19.8%, the “% retained (no thrombin)” value was 0.4% and the “% retained (with thrombin)” value is given as 20.2%.

For the substance “Ac-GQDPVKG-Pn216 (also: 99mTc complex) [^99mTc-Cmpd 48]”, in test [1] (Aged Clots), the Clot/blood is on record as 1, the Clot/heart is 32, the Clot/liver was 26 and the Clot/lung turned out to be 109. Further, in test [1] (setting [3]), the “% id/g (clot)” value came out at 0.2 ± 0.04 % id/g and the “Rel. Conc. (cpm/g of clot by dose/g animal)” value stood at 0.8 ± 0.2. For the same substance, in test [1] (Fresh Clots), the Clot/blood was determined as 0.6, the Clot/heart was found to be 2, the Clot/liver came to 3 and the Clot/lung came out at 0.9. Also, in test [1] (setting [4]), the “% id/g (clot)” value is reported as 0.3 ± 0.2 % id/g and the “Rel. Conc. (cpm/g of clot by dose/g animal)” value was 1.0 ± 0.5. Further, in test [2], the “% specific uptake” value is recorded as 10.5%, the “% retained (no thrombin)” value came to 0.1%, the “% retained (with thrombin)” value came out at 10.6% and the “in vitro clot uptake (in words)” value was “significant reduction in uptake”.

As to “Ac-LEFDTQSKNILG-Pn216 (also: 99mTc complex) [^99mTc-Cmpd 47]”, in test [1] (Aged Clots), the Clot/blood was determined as 1, the Clot/heart came out at 46, the Clot/liver is 44 and the Clot/lung came to 24. Also, in test [1] (setting [3]), the “% id/g (clot)” value was 0.5 ± 0.3 % id/g and the “Rel. Conc. (cpm/g of clot by dose/g animal)” value is 1.5 ± 0.8. In test [1] (Fresh Clots), the Clot/blood came to 0.8, the Clot/heart was 3, the Clot/liver came to 1 and the Clot/lung is given as 1. In addition, in test [1] (setting [4]), the “% id/g (clot)” value stood at 0.8 ± 0.7 % id/g and the “Rel. Conc. (cpm/g of clot by dose/g animal)” value amounted to 2.2 ± 2.0. Moreover, in test [2], the “% specific uptake” value came to 49.8%, the “% retained (no thrombin)” value was 0.1% and the “% retained (with thrombin)” value was 49.9%.

As to “Ac-LGPGQSKVIG-Pn44 (also: 99mTc complex) [^99mTc-Cmpd 45]”, in test [1] (Aged Clots), the Clot/blood is 8, the Clot/heart stood at 11, the Clot/liver amounted to 3 and the Clot/lung was 5. Moreover, in test [1] (setting [3]), the “% id/g (clot)” value was determined as 2.0 ± 0.8 % id/g and the “Rel. Conc. (cpm/g of clot by dose/g animal)” value stood at 5.7 ± 2.3. In test [1] (Fresh Clots), this substance came in with a Clot/blood of 6, a Clot/heart of 10, a Clot/liver of 3 and a Clot/lung of 5. In test [1] (setting [4]), the “% id/g (clot)” value turned out to be 2.0 ± 0.5 % id/g and the “Rel. Conc. (cpm/g of clot by dose/g animal)” value was 5.5 ± 1.3. For the same substance, in test [2], the “% specific uptake” value is on record as 28.6%, the “% retained (no thrombin)” value was 0.1% and the “% retained (with thrombin)” value is reported as 28.7%.

“Ac-NQEQV(D-S)P(D-Y)TLL(D-K)G-Pn216 [^99mTc-Cmpd 30]”: in test [2], the “% specific uptake” value turned out to be 14.7%, the “% retained (no thrombin)” value is 0.2% and the “% retained (with thrombin)” value came out at 14.9%.

For the substance “Ac-NQEQVSPYTLLKG-(PEG)3.4k-Pn44 (Ac-NQEQVSPYTLLKG-{PEG 3.4k-Pn44}; also: 99mTc complex) [^99mTc-Cmpd 40]”, in test [2], the “% specific uptake” value was determined as 13.2%, the “% retained (no thrombin)” value came out at 0.1% and the “% retained (with thrombin)” value came out at 13.3%.

On to “NQEQVSPYTLLKG-Pn216 (also: 99mTc complex) [^99mTc-Cmpd 6]”, for which, in test [2], the “% specific uptake” value is listed as 64.3%, the “% retained (no thrombin)” value came out at 4.3% and the “% retained (with thrombin)” value turned out to be 68.6%.

On to “Z-NQEQVSP(I2-Y)TLLKG-Pn216 [^99mTc-Cmpd 25]”, for which, in test [2], the “% specific uptake” value came to 63.7%, the “% retained (no thrombin)” value is 4.3% and the “% retained (with thrombin)” value came to 68.0%.

Turning to “Z-NQEQVSPYG-Pn216 ({code Z}-NQEQVSPYG-Pn216; reading uncertain; also: 99mTc complex, printed as Z-NQEQVSPYG-Pn216) [^99mTc-Cmpd 18]”, in test [2], the “% specific uptake” value is recorded as 9.7%, the “% retained (no thrombin)” value came out at 0.1%, the “% retained (with thrombin)” value was 9.8% and the “in vitro clot uptake (in words)” value was “significant reduction in uptake”.
